According to patent publication US9689040B2, “Selective inhibitors of tumor-initiating cells” (Children's Medical Center Corporation, priority 2011, dated 2017):

Assays:
[1] = test system: BPLER cells; assay: Genome-wide siRNA lethality screen (primary screen), CellTiterGlo viability; assay type: cell-based, human; details: for MAD BPLER / Fold BPLER: siRNA pool against the gene; for MAD BPLER: MAD score of viability in BPLER cells; for Fold BPLER: fold viability in BPLER cells; for Ratio: R, BPLER versus HMLER, primary screen
[2] = test system: HMLER cells; assay: as above; assay type: cell-based, human; details: for MAD_HMLER / Fold_HMLER: primary screen, HMLER cells; for MAD_HMLER: MAD score; for MAD HMLER: MAD score of viability in HMLER cells; for Fold HMLER: fold viability in HMLER cells
[3] = test system: BPLER cells; assay: Secondary (cherry-pick) screen with the 4 individual siRNAs of each pool; details: for Cherry_Score: secondary cherry-pick screen, 4 individual siRNAs of each pool
[4] = ratio of Fold_BPLER to Fold_HMLER
[5] = ratio of fold viability BPLER/HMLER
[6] = siRNA pool against the gene, fold viability
[7] = secondary screen with the 4 individual siRNAs of each pool
[8] = validation screen with individual siRNAs of each pool

Substance	Ratio BPLER/HMLER [1, 4]	Ratio BPLER/HMLER [1, 5]	MAD BPLER [1]	Fold BPLER [1]	MAD_HMLER ([2]; siRNA pool against the gene)	Fold_HMLER [2, 6]	MAD HMLER ([2]; siRNA pool against the gene)	Fold HMLER ([2]; siRNA pool against the gene)	Cherry_Score [3]	Cherry Score [3, 7]	Ratio [1]	Fold_HMLER ([2]; siRNA pool)	Cherry Score [3, 8]
PHF1	0.71	0.71	−3.21	0.606	−0.72	0.86	−0.72	0.86	1	1			
NM_198080											0.67	0.85	1
TSG101	0.66	0.66	−2.45	0.684	0.23	1.04	0.23	1.04	3	3			
TANC2	0.67	0.67	−1.86	0.709	0.40	1.05	0.40	1.05	1	1			
TNPO1	0.70	0.70	−1.99	0.630	−0.59	0.90	−0.59	0.90	1	1			
PCBP3	0.71	0.71	−1.69	0.727	0.15	1.02	0.15	1.02	1	1			
PDE6C	0.66	0.66	−1.98	0.621	−0.33	0.95	−0.33	0.95	1	1			
PRC1	0.68	0.68	−3.08	0.409	−2.40	0.60	−2.40	0.60	1	1			
XM_058073											0.73	0.75	3
NM_152905											0.67	1.08	1
SLC47A1	0.68	0.68	−1.62	0.613	−0.71	0.90	−0.71	0.90	2	2			
NM_080730											0.72	0.99	1
TBC1D24	0.71	0.71	−1.97	0.680	−0.32	0.95	−0.32	0.95	2	2			
NM_032425											0.73	0.77	2
PDCD4	0.73	0.73	−2.81	0.462	−2.25	0.63	−2.25	0.63	1	1			
SCD	0.74	0.74	−3.24	0.555	−1.58	0.75	−1.58	0.75	2	2			
